Measured values from EP0012729A1, “Therapeutic compositions containing as active compound a substituted acetic acid or its salt” ("IBIS" ISTITUTO BIOCHIMICO SPERIMENTALE S.p.A., priority 1978, dated 1980).

System: Wistar rats
Experiment: Choleretic activity in the rat, bile fistula method
Format: in vivo
Settings: for R.S. (dry residue): pooled bile; for ml of bile flow ± s.e.: second series
Text: It is known that the primary effect of a choleretic agent is to increase the bile flow and the quantity of solid substances excreted with the bile. A good choleretic must provide this effect in a sufficiently intense and prolonged manner. In addition, as in the case of all drugs, it must have low acute toxicity and good general tolerability, but in particular must be free from toxic effects on the organ on which it is required to act, i.e. the liver, whether this is in a normal or pathological state. The analysis of the new product in comparison with the best known products for the same therapeutic use has therefore been focused on these aspects. The choleretic activity of the new product has been determined in the rat by using the bile fistula method. Wistar rats of both sexes and having a weight of between 180 and 240 g were used.
The animals, which were kept fasting for 12 hours but with free access to water, were narcotised by ethyl urethane in a dose of 1 g/kg by intra peritoneal or intramuscular injection.
After binding the animals to the retention bed, a median laparatomy was carried out, and when the bile duct had been isolated a cannula needle was inserted into it. A polythene tube was then inserted into those ani mals which were to receive the products intraduodenally, after which a su ture was carried out on the abdominal wall, and the bile was allowed to discharge for 30 minutes after inserting the cannula in the bile duct, so as to allow the discharge to become normal. The bile was then collec ted for one hour.
Having determined the volume of bile discharged during this first hour of collection (base volume), the products under examination were administered at the predetermined doses and by the predetermined methods. The bile excreted by the individual animals was then collected over each hour for a further six hours.
During the experiments, the animals were kept at ambient temperature of about 22°C, and at regular intervals of two hours received 10 ml/kg of physiological solution s.c.
The liquids were administered at a temperature of 37°C.
The bile flow and cholesterol excretion were determined on those bile fractions excreted by the animals over each hour starting from the base hour until the end of the experiment
The dry residue (R.So) was determined on the bile fraction excreted during the base hour and on the total bile fractions excreted during the sub sequent hours. For practical reasons, the determination of the dry residue and of the cholesterol (carried out by the Sperry & Webb method) were carried out on the pool of bile excreted by the entire group of animals subjected to the same treatment instead of on the bile fractions excreted by the individual animals (which was sometimes insufficient for determining the cholesterol).
In compiling the graphs, the differences between the choleresis in the treated animals and that in the controls was calculated over the considered time intervals, and expressed as a percentage of the base choleresis. For this calculation, the following formula was used: [formula] where Cn and C' represent the choleresis (in ml/kg/h for the bile flow, and in mg/kg/h for the dry residue) determined over the considered time interval for the group of treated animals and the group of controls respectively. Cb and C'b represent the base choleresis in the group of treated animals and group of controls respectively.
This index was calculated as the time for halving the maximum choleresis increase recorded under their effect.

## C[C@H](CCC(=O)O)[C@H]1CC[C@H]2[C@@H]3C(=O)C[C@@H]4CC(=O)CC[C@]4(C)[C@H]3CC(=O)[C@]12C [Dehydrocholic acid, dehydrocholic acid]
25 mg/kg p.o., 0 (base hour)
  Flow: 2,46±0,05 ml/kg/h
  R.S. (dry residue): 59,8 mg/kg/h
25 mg/kg p.o., 1h
  Flow: 3,33±0,14 ml/kg/h
  R.S. (dry residue): 84,1 mg/kg/h
25 mg/kg p.o., 2h
  Flow: 1,88±0,14 ml/kg/h
25 mg/kg p.o., 3h
  Flow: 2,19±0,15 ml/kg/h
25 mg/kg p.o., 4h
  Flow: 1,92±0,17 ml/kg/h
25 mg/kg p.o., 5h
  Flow: 1,77±0,16 ml/kg/h
25 mg/kg p.o., 6h
  Flow: 1,29±0,15 ml/kg/h
25 mg/kg p.o., subsequent hours 2h-6h
  R.S. (dry residue): 41,0 mg/kg/h
50 mg/kg i.d., 0 (base hour)
  Flow: 2,31±0,15 ml/kg/h
  R.S. (dry residue): 61,9 mg/kg/h
50 mg/kg i.d., 1 h
  Flow: 3,82±0,26 ml/kg/h
  R.S. (dry residue): 98,5 mg/kg/h
50 mg/kg i.d., 2 h
  Flow: 2,51±0,17 ml/kg/h
50 mg/kg i.d., 3 h
  Flow: 2,63±0,19 ml/kg/h
50 mg/kg i.d., 4 h
  Flow: 1,93±0,12 ml/kg/h
50 mg/kg i.d., 5 h
  Flow: 1,87±0,13 ml/kg/h
50 mg/kg i.d., 6 h
  Flow: 1,45±0,14 ml/kg/h
50 mg/kg i.d., subsequent hours 2h-6h (printed under 4 h)
  R.S. (dry residue): 44,5 mg/kg/h
100 mg/kg i.d., 0 (base hour)
  Flow: 1,80±0,09 ml/kg/h
  R.S. (dry residue): 52,3 mg/kg/h
100 mg/kg i.d., 1 h
  Flow: 4,59±0,24 ml/kg/h
  R.S. (dry residue): 147,0 mg/kg/h
100 mg/kg i.d., 2 h
  Flow: 2,45±0,10 ml/kg/h
100 mg/kg i.d., 3 h
  Flow: 1,98±0,09 ml/kg/h
100 mg/kg i.d., 4 h
  Flow: 1,82±0,09 ml/kg/h
100 mg/kg i.d., 5 h
  Flow: 1,82+0,08 ml/kg/h
100 mg/kg i.d., 6 h
  Flow: 1,55±0,08 ml/kg/h
100 mg/kg i.d., subsequent hours 2h-6h (printed under 4 h)
  R.S. (dry residue): 49,9 mg/kg/h
100 mg/kg p.o., 0 (base hour)
  Flow: 2,23±0,22 ml/kg/h
  R.S. (dry residue): 55,4 mg/kg/h
100 mg/kg p.o., 1h
  Flow: 3,75±0,75 ml/kg/h
  R.S. (dry residue): 98,6 mg/kg/h
100 mg/kg p.o., 2h
  Flow: 2,60±0,24 ml/kg/h
100 mg/kg p.o., 3h
  Flow: 2,15±0,28 ml/kg/h
100 mg/kg p.o., 4h
  Flow: 2,10±0,24 ml/kg/h
100 mg/kg p.o., 5h
  Flow: 1,64±0,20 ml/kg/h
100 mg/kg p.o., 6h
  Flow: 1,64±0,24 ml/kg/h
100 mg/kg p.o., subsequent hours 2h-6h
  R.S. (dry residue): 45,5 mg/kg/h
200 mg/kg i.d., 0 (base hour)
  Flow: 2,28±0,09 ml/kg/h
  R.S. (dry residue): 71,0 mg/kg/h
200 mg/kg i.d., 1 h
  Flow: 8,10±0,38 ml/kg/h
  R.S. (dry residue): 255,0 mg/kg/h
200 mg/kg i.d., 2 h
  Flow: 3,76±0,10 ml/kg/h
200 mg/kg i.d., 3 h
  Flow: 2,69±0,07 ml/kg/h
200 mg/kg i.d., 4 h
  Flow: 2,77±0,13 ml/kg/h
200 mg/kg i.d., 5 h
  Flow: 2,34±0,11 ml/kg/h
200 mg/kg i.d., 6 h
  Flow: 2,16±0,08 ml/kg/h
200 mg/kg i.d., subsequent hours 2h-6h (printed under 4 h)
  R.S. (dry residue): 67,0 mg/kg/h
200 mg/kg p.o. (dose given for 1620 only)
  Peak choleresis time of appearance: 1st hour
200 mg/kg p.o. (dose given for 1620 only), increase over controls as percentage of base choleresis
  Peak choleresis % increase: 94%
200 mg/kg p.o. (dose given for 1620 only), time for halving the maximum choleresis increase
  Duration index: 45'
200 mg/kg p.o., 0 (base hour)
  Flow: 2,75±0,17 ml/kg/h
  R.S. (dry residue): 85,8 mg/kg/h
200 mg/kg p.o., 1h
  Flow: 5,39±0,24 ml/kg/h
  R.S. (dry residue): 171,9 mg/kg/h
200 mg/kg p.o., 2h
  Flow: 3,50±0,13 ml/kg/h
200 mg/kg p.o., 3h
  Flow: 2,64±0,19 ml/kg/h
200 mg/kg p.o., 4h
  Flow: 2,78±0,18 ml/kg/h
200 mg/kg p.o., 5h
  Flow: 2,61±0,13 ml/kg/h
200 mg/kg p.o., 6h
  Flow: 2,38±0,14 ml/kg/h
200 mg/kg p.o., subsequent hours 2h-6h
  R.S. (dry residue): 74,9 mg/kg/h
400 mg/kg p.o., 0 (base hour)
  Flow: 2,53±0,10 ml/kg/h
  R.S. (dry residue): 71,8 mg/kg/h
400 mg/kg p.o., 1h
  Flow: 7,68±0,20 ml/kg/h
  R.S. (dry residue): 238,6 mg/kg/h
400 mg/kg p.o., 2h
  Flow: 4,70±0,45 ml/kg/h
400 mg/kg p.o., 3h
  Flow: 3,06±0,15 ml/kg/h
400 mg/kg p.o., 4h
  Flow: 2,59±0,16 ml/kg/h
400 mg/kg p.o., 5h
  Flow: 2,29±0,12 ml/kg/h
400 mg/kg p.o., 6h
  Flow: 1,97±0,15 ml/kg/h
400 mg/kg p.o., subsequent hours 2h-6h
  R.S. (dry residue): 77,8 mg/kg/h
Oral by gastric probe 25 mg/kg, 0 (base values)
  ml of bile flow ± s.e.: 2,4±0,21 ml
Oral by gastric probe 25 mg/kg, 1 h
  ml of bile flow ± s.e.: 3,0±0,25 ml
Oral by gastric probe 25 mg/kg, 2 h
  ml of bile flow ± s.e.: 2,0±0,12 ml
Oral by gastric probe 25 mg/kg, 3 h
  ml of bile flow ± s.e.: 1,9±0,11 ml
Oral by gastric probe 25 mg/kg, 4 h
  ml of bile flow ± s.e.: 1,7±0,13 ml
Oral by gastric probe 25 mg/kg, 5 h
  ml of bile flow ± s.e.: 1,7±0,10 ml
Oral by gastric probe 25 mg/kg, 6 h
  ml of bile flow ± s.e.: 1,4±0,11 ml
Oral by gastric probe 50 mg/kg, 0 (base values)
  ml of bile flow ± s.e.: 2,5±0,16 ml
Oral by gastric probe 50 mg/kg, 1 h
  ml of bile flow ± s.e.: 3,9±0,18 ml
Oral by gastric probe 50 mg/kg, 2 h
  ml of bile flow ± s.e.: 2,1±0,16 ml
Oral by gastric probe 50 mg/kg, 3 h
  ml of bile flow ± s.e.: 1,9±0,14 ml
Oral by gastric probe 50 mg/kg, 4 h
  ml of bile flow ± s.e.: 1,8±0,17 ml
Oral by gastric probe 50 mg/kg, 5 h
  ml of bile flow ± s.e.: 1,7±0,11 ml
Oral by gastric probe 50 mg/kg, 6 h
  ml of bile flow ± s.e.: 1,5±0,13 ml
